# Measurements as given in patent publication US20250339462A1, “CANCER TREATMENT USING ULTRA-HIGH CONCENTRATION GASEOUS NITRIC OXIDE AND A CHECKPOINT INHIBITOR” (Beyond Air, Inc., priority 2022, published 2025).
# Test system: 4T1 tumor-bearing mice
# Assay: 4T1 breast cancer model, UNO/Anti-PD-1 Repeated Dose Study
# Assay type: in vivo, mouse
# Experimental: Preparation of 4T1 cells: Cancer cell suspension, in Hanks' Balanced Salt Solution (HBSS) (Biological Industries, Israel), at a concentration of 5.0×10^6 cells/ml was freshly prepared on the day of the cancer model induction. Cells were grown to a 70-80% confluency and harvested using trypsin. The cells were centrifuged at 1,200 revolutions per minute (rpm)—241 G for 8 minutes, then the pellet was re-suspended in 1 ml of HBSS. The cells were counted using an automated cell counter and a suspension with a concentration of 5.0×10^6 cells/ml was prepared. Cell viability must be above 90% before cell inoculation to the mice, otherwise new cells will need to be prepared. At the point of inoculation, cells will be at passage 8 at most. The cell suspension was then aspirated into a 1 ml syringe with a 27 G needle, for subcutaneous (s.c.) injection. All injection volume was used and was not re-introduced into the stock solution.
# Inoculation of 4T1 cancer cells to mice—Cancer cell suspension at a concentration of 5.0×10^6 cells/ml was inoculated to the right flank of animals at a volume of 100 μl per mouse. Female Balb/c mice were inoculated with 100 μl of 5.0×10^6 4T1 cells/ml. Administration was performed as soon as possible following cell preparation and after manual shaking prior to withdrawal of cell suspension. Injections were performed using a 1 ml syringe and a 27 G needle where withdrawal is done without the needle.
# UNO and N2 treatment—On the day of treatment, mice were anesthetized by an intraperitoneal (i.p.) injection of 100 mg/kg of ketamine and 10 mg/kg of xylazine hydrochloride solution. Tumor-bearing mice were treated with either N2 or UNO at 50,000 ppm or 100,000 ppm. UNO at 50,000 ppm was administered intratumorally by a 23 G needle for 10 minutes, at 0.2 LPM and 2 bar exit pressure. UNO at 100,000 ppm was administered intratumorally by a 23 G needle for 2 minutes, at 0.2 LPM and 2 bar exit pressure. After treatment, all mice were warmed and closely monitored until complete recovery was observed.
# Injection of anti-PD-1—Anti-PD-1 was administered 5 times intraperitoneally (i.p.) at a dose of 10 mg/kg, i.p., using a 1 ml syringe with a 27 G needle. The injection was administered to approximately the same location each time.
# UNO/Anti-PD-1 Repeated Dose Study—Balb/c mice (96) were inoculated with mouse breast cancer carcinoma (4T1) cells injected subcutaneously (s.c.) to the right flank. When the average tumor volume reached 50-150 mm^3, mice assigned to gas treatment groups were treated with 5% UNO (50,000 ppm), stabilized in N2, injected intratumorally (i.t.) for 10 minutes at a flow rate of 0.2 liters per minute (LPM) or with N2 injected intratumorally (i.t.) for 10 minutes at a flow rate of 0.2 LPM as a control. The mice were administered the gas treatment, e.g., UNO or N2, twice, on day 9 post-tumor cells inoculation and, 5 days later, on day 14 post-tumor inoculation. Mice assigned to the combination treatment group (i.e., gas+anti-mPD-1) were administered anti-mPD-1 injections starting from the day of first gas treatment and administered every three days thereafter, with a final dose of anti-mPD-1 injected 12 days after the first gas treatment.
# Primary tumor volume progression was monitored twice a week by measuring the tumor using a digital caliper calculated as: […]
# where Diameter 1 is length, Diameter 2 is width, and Diameter 3 is height.
# Mice receiving two UNO treatments were divided into two groups: in the first group, the primary tumors were surgically removed 15 days after the first UNO treatment, while, in the second group, the tumors were not resected. Mice survival was evaluated. Mice that reached a tumor volume of ≥1500 mm^3 and/or a score of 12 were humanely euthanized, and the time of death was recorded. Metastases development was evaluated postmortem.
# [1] = with primary tumor resection (FIG. 13B), Cox model
structure (smiles),measurement,setting,value
"[N]=O [UNO, nitric oxide]",Primary tumor size vs untreated or only anti-mPD-1,"repeated UNO dosing 50,000 ppm 10 min twice, 14 days after first UNO treatment (FIG. 12B)",significantly smaller
same,"Survival (Kaplan-Meier) vs anti-mPD-1 alone, untreated or N2 controls",repeated doses of UNO,tendency toward prolonged survival
same,Tumors smaller compared to anti-mPD-1 alone group,"repeated doses of UNO without anti-mPD-1, 14 days after first UNO treatment",21.0%
same,Survival hazard ratio vs anti-mPD-1,[1],1.58
same,Survival hazard ratio vs untreated,[1],0.69
same,Survival hazard ratio vs untreated,"without resection of primary tumor (FIG. 13A), Cox model",0.63
